Assay results taken from US9321764B2, “Dihydro-pyrrolopyridinone inhibitors” (AbbVie Inc., priority 2013, dated 2016).

How the values were obtained:
BRD4 (BDI_K57-E168) = target: T1, BRD4 (BDI_K57-E168) (Homo sapiens, UniProt O60885); test: TR-FRET bromodomain binding assay, first bromodomain of BRD4; conditions: His-tagged BD1, 100 nM Alexa647 probe; TR-FRET protocol A-E given per row
T1 construct: BD1: amino acids K57-E168; made in house
Description: (§1) A time-resolved fluorescence resonance energy transfer (TR-FRET) assay was used to determine the affinities of compounds of the Examples listed in Table 1 for each bromodomain of BRD4. His-tagged first (BD1: amino acids K57-E168) and second (BD2: amino acids E352-E168) bromodomains of BRD4 were expressed and purified. An Alexa647-labeled BET-inhibitor was used as the fluorescent probe in the assay.
(§2) Compound dilution series were prepared in DMSO via an approximately 3-fold serial dilution from one of the following:
Assay method A: 250 μM-4.2 nM
Assay method B: 0.47 mM to 7.8 nM
Assay method C: 500 μM-8.5 nM
(§3) Assay method D: 2.5 mM-800 nM
Assay method E: 0.047 mM to 0.78 nM or 5-fold serial dilution from Assay method D
For Assay methods A, C, and D: Compounds were then diluted 6:100 in assay buffer (20 mM Sodium Phosphate, pH 6.0, 50 mM NaCl, 1 mM Ethylenediaminetetraacetic acid, 0.01% Triton X-100, 1 mM DL-Dithiothreitol) to yield 3× working solutions. Six microliters (μL) of the working solution was then transferred to white, low-volume assay plates (Costar #3673). A 1.5× assay mixture containing His-tagged bromodomain, Europium-conjugated anti-His antibody (Invitrogen PV5596) and the Alexa-647-conjugated probe molecule was also prepared. Twelve μL of this solution were added to the assay plate to reach a final volume of 18 μL.
For Assay methods B and E: Compound dilutions were added directly into white, low-volume assay plates (Perkin Elmer Proxiplate 384 Plus #6008280) using a Labcyte Echo in conjunction with Labcyte Access and Thermo Multidrop CombinL robotics. Compounds were then suspended in eight microliters (μL) of assay buffer (20 mM Sodium Phosphate, pH 6.0, 50 mM NaCl, 1 mM Ethylenediaminetetraacetic acid disodium salt dihydrate, 0.01% Triton X-100, 1 mM DL-Dithiothreitol) containing His-tagged bromodomain, Europium-conjugated anti-His antibody (Invitrogen PV5596) and Alexa-647-conjugated probe.
The final concentration of 1× assay mixture for assay methods A, B, C, D, and E contains 2% DMSO, 8 nM His-tagged bromodomain, 1 nM Europium-conjugated anti-His-tag antibody and 100 nM or 30 nM probe (for BDI or BDII, respectively) and compound concentration in the range of: 5 μM-85 pM for method A, 9.19 μM 150 pM for method B, 10 μM-169 pM for method C, 50 μM-16 nM for method D, and 0.92 μM-15 pM for method E.
After a one-hour equilibration at room temperature, TR-FRET ratios were determined using an Envision multilabel plate reader (Ex 340, Em 495/520).
TR-FRET data were normalized to the means of 24 no-compound controls (“high”) and 8 controls containing 1 μM un-labeled probe (“low”). Percent inhibition was plotted as a function of compound concentration and the data were fit with the 4 parameter logistic equation to obtain IC50s Inhibition constants (Ki) were calculated from the IC50s, probe Kd and probe concentration. Typical Z′ values were between 0.65 and 0.75. The minimum significant ratio was determined to evaluate assay reproducibility (Eastwood et al., (2006) J Biomol Screen, 11: 253-261). The MSR was determined to be 2.03 for BDI and 1.93 for BDII, and a moving MSR (last six run MSR overtime) for both BDI and BDII was typically <3.

BRD4 (BDII_E352-M457) = target: T2, BRD4 (BDII_E352-M457) (Homo sapiens, UniProt O60885); test: TR-FRET bromodomain binding assay, second bromodomain of BRD4; conditions: His-tagged BD2, 30 nM Alexa647 probe; TR-FRET protocol A-E given per row
T2 construct: proliferation; Protocol; made in house
Description: as §1, §2, §3
For Assay methods A, C, and D: Compounds were then diluted 6:100 in assay buffer (20 mM Sodium Phosphate, pH 6.0, 50 mM NaCl, 1 mM Ethylenediaminetetraacetic acid, 0.01% Triton X-100, 1 mM DL-Dithiothreitol) to yield 3× working solutions. […] Twelve μL of this solution were added to the assay plate to reach a final volume of 18 μL.
TR-FRET data were normalized to the means of 24 no-compound controls (“high”) and 8 controls containing 1 μM un-labeled probe (“low”). Percent inhibition was plotted as a function of compound concentration and the data were fit with the 4 parameter logistic equation to obtain IC50s Inhibition constants (Ki) were calculated from the IC50s, probe Kd and probe concentration. Typical Z′ values were between 0.65 and 0.75.

SMILES	Ki (BRD4 (BDI_K57-E168)) [nM]	Ki (BRD4 (BDII_E352-M457)) [nM]
CCS(=O)(=O)c1ccc(Oc2cncnc2)c(-c2cn(C)c3c(=O)[nH]ccc23)c1 [Example 88, 3-[5-(ethylsulfonyl)-2-(pyrimidin-5-yloxy)phenyl]-1-methyl-1,6-dihydro-7H-pyrrolo[2,3-c]pyridin-7-one]	287	739
CCc1cc(Oc2ccc(S(=O)(=O)CC)cc2-c2cn(C)c3c(=O)[nH]ccc23)ccc1Cl [Example 79, 3-[2-(4-chloro-3-ethylphenoxy)-5-(ethylsulfonyl)phenyl]-1-methyl-1,6-dihydro-7H-pyrrolo[2,3-c]pyridin-7-one]	150	84
COc1ccc(S(C)(=O)=O)cc1-c1cn(C)c2c(=O)[nH]ccc12 [Example 21, 3-[2-methoxy-5-(methylsulfonyl)phenyl]-1-methyl-1,6-dihydro-7H-pyrrolo[2,3-c]pyridin-7-one]	438	721
Cn1cc(-c2cc(S(C)(=O)=O)ccc2NCC(F)(F)C(F)(F)C(F)(F)F)c2cc[nH]c(=O)c21 [Example 70, 3-{2-[(2,2,3,3,4,4,4-heptafluorobutyl)amino]-5-(methylsulfonyl)phenyl}-1-methyl-1,6-dihydro-7H-pyrrolo[2,3-c]pyridin-7-one]	613	1660
Cn1cc(-c2cc(NS(C)(=O)=O)c(Oc3ccc(F)cc3F)cc2F)c2cc[nH]c(=O)c21 [Example 12, N-[2-(2,4-difluorophenoxy)-4-fluoro-5-(1-methyl-7-oxo-6,7-dihydro-1H-pyrrolo[2,3-c]pyridin-3-yl)phenyl]methanesulfonamide]	684	1170
Cn1cc(-c2cc(S(C)(=O)=O)ccc2NCCC2CCCC2)c2cc[nH]c(=O)c21 [Example 72, 3-{2-[(2-cyclopentylethyl)amino]-5-(methylsulfonyl)phenyl}-1-methyl-1,6-dihydro-7H-pyrrolo[2,3-c]pyridin-7-one]	492	967
Cc1cccc(OCC2CC2)c1-c1cn(C)c2c(=O)[nH]ccc12 [Example 50, 3-[2-(cyclopropylmethoxy)-6-methylphenyl]-1-methyl-1,6-dihydro-7H-pyrrolo[2,3-c]pyridin-7-one]	1710	> 4440

Now those with a lower Ki (BRD4 (BDI_K57-E168)), led by results:

Ki (BRD4 (BDI_K57-E168)) [nM]	Ki (BRD4 (BDII_E352-M457)) [nM]	SMILES
57.5	215	Cn1cc(-c2cc(NCCC(C)(C)C)ccc2Oc2ccc(F)cc2F)c2cc[nH]c(=O)c21 [Example 174, 3-{2-(2,4-difluorophenoxy)-5-[(3,3-dimethylbutyl)amino]phenyl}-1-methyl-1,6-dihydro-7H-pyrrolo[2,3-c]pyridin-7-one]
118	333	Cn1cc(-c2cc(NC(=O)C3CCN(c4ccccc4)C3=O)ccc2Oc2ccc(F)cc2F)c2cc[nH]c(=O)c21 (stereo not drawn) [Example 157, N-[4-(2,4-difluorophenoxy)-3-(1-methyl-7-oxo-6,7-dihydro-1H-pyrrolo[2,3-c]pyridin-3-yl)phenyl]-2-oxo-1-phenylpyrrolidine-3-carboxamide]
69.1	285	Cn1cc(-c2cc(NCc3c(F)cccc3F)ccc2Oc2ccc(F)cc2F)c2cc[nH]c(=O)c21 [Example 175, 3-{5-[(2,6-difluorobenzyl)amino]-2-(2,4-difluorophenoxy)phenyl}-1-methyl-1,6-dihydro-7H-pyrrolo[2,3-c]pyridin-7-one]
11	73	Cc1cc(CC(=O)Nc2ccc(Oc3ccc(F)cc3F)c(-c3cn(C)c4c(=O)[nH]ccc34)c2)nn1C [Example 164, N-[4-(2,4-difluorophenoxy)-3-(1-methyl-7-oxo-6,7-dihydro-1H-pyrrolo[2,3-c]pyridin-3-yl)phenyl]-2-(1,5-dimethyl-1H-pyrazol-3-yl)acetamide]
101	> 408	Cn1cc(-c2cc(NC(=O)Cc3ccc(Cl)cc3F)ccc2Oc2ccc(F)cc2F)c2cc[nH]c(=O)c21 [Example 160, 2-(4-chloro-2-fluorophenyl)-N-[4-(2,4-difluorophenoxy)-3-(1-methyl-7-oxo-6,7-dihydro-1H-pyrrolo[2,3-c]pyridin-3-yl)phenyl]acetamide]
